Reference: patent US20250074910A1, “MENIN INHIBITOR AND USE THEREOF” (HITGEN INC., priority 2021, published 2025)

System: not listed separately
Assay: Stability in mouse liver microsomes
Format: in vitro ADME
Conditions: 0.5 mg/mL microsomal protein, 1.00 μM compound, NADPH
Procedure: (§1) Test Example 3: Test of Stability of Compounds in Liver Microsome
(§2) Test purpose: To determine the stability of some of the compounds of the present disclosure in mouse, dog and human liver microsomes by LC-MS/MS method.
(§3) Test materials: The test drugs were in-house prepared example compounds of the present disclosure; the positive reference compound SNDX-5613 was prepared by the method of Example 253 in patent WO2017214367; the control compound 1 was prepared by the method of Example 64 in WO2017214367; liver microsomes were purchased from CORNING.
(§4) The total volume of each incubation system was approximately 45 μL, and the medium was 100 mM phosphate buffer (PBS, pH 7.4), including liver microsomal protein at a final concentration of 0.5 mg/mL, 1.00 μM compound and 2.00 mM NADPH, and the organic phase content was <1%. Incubation was performed in a 37° C. incubator, and 135 μL of ice-cold acetonitrile was added after 0, 5, 15, 30 and 60 min of reaction to terminate the reaction. The positive control group was incubated with 1.00 μM Ketanserin, 0.5 mg/mL liver microsomal protein and 2.00 mM NADPH in a 37° C. incubator for 0, 5, 15, 30 and 60 min respectively, and then 135 μL of ice-cold acetonitrile was added to terminate the reaction. The 96-well plates were shaken at 600 rpm for 10 min and then centrifuged at 4700 rpm at 4° C. for 15 min. 80 μL of supernatant was mixed with 320 μL of pure water, and the remaining amount of the compound was detected by LC-MS/MS method. The in vitro half life (T½) and intrinsic clearance (CLint) were calculated according to the following formula:
(§5) Intrinsic clearance (Clint)=(0.693/T1/2)×(1/liver microsome concentration)×conversion factor. k is the linear regression slope of the remaining percentage of the ln compound-incubation time.
With `CC(C)c1ncncc1-c1cc(F)ccc1Oc1cncnc1N1CC2(CN(CC3CCC4(CC3)OCCO4)C2)C1` [Control compound 1, reference compound] the “Half life T1/2, mouse liver microsomes” value was 3.75 min.

Same assay, conditions: liver microsomes, pH 7.4, 0.5 mg/mL microsomal protein, 1.00 μM compound, NADPH, read-out: Half life T1/2, mouse liver microsomes
With `CCN(C(=O)c1cc(F)ccc1Oc1nncnc1N1CC2(CCN(CC3CC4CCC3CC43CCC(=O)N3)CC2)C1)C(C)C` (single isomer, unassigned) [Example 14-1a] the half-life at 1 μM was > 120 min. For `CC(C)N(C(=O)c1cc(F)ccc1Oc1nncnc1N1CC2(CCN(CC3CCC4(CC3)CN(C)C(=O)N4)CC2)C1)C(C)C` (single isomer, unassigned) [Example 47-1], the half-life at 1 μM was > 120 min.

System: not listed separately
Assay: Stability in dog liver microsomes
Format: in vitro ADME
Conditions: dog, liver microsomes, pH 7.4, Dog; 0.5 mg/mL microsomal protein, 1.00 μM compound, NADPH; read-out: Half life T1/2, dog liver microsomes
Procedure: as §1, §2, §3, §4, §5
In the case of `CC(C)N(C(=O)c1cc(F)ccc1Oc1nncnc1N1CC2(CCN(CC3CCC4(CC3)CN(C)C(=O)N4)CC2)C1)C(C)C` (single isomer, unassigned) [Example 47-1], the half-life at 1 μM is reported as 77 min.

System: not listed separately
Assay: Stability in human liver microsomes
Format: in vitro ADME
Conditions: Human; 0.5 mg/mL microsomal protein, 1.00 μM compound, NADPH
Procedure: as §1, §2, §3, §4, §5
In the case of `CC(C)c1ncncc1-c1cc(F)ccc1Oc1cncnc1N1CC2(CN(CC3CCC4(CC3)OCCO4)C2)C1` [Control compound 1, reference compound], the “Half life T1/2, human liver microsomes” value is reported as 4.77 min.

Same assay, conditions: human, liver microsomes, pH 7.4, Human; 0.5 mg/mL microsomal protein, 1.00 μM compound, NADPH; read-out: Half life T1/2, human liver microsomes
Molecule `CCN(C(=O)c1cc(F)ccc1Oc1nncnc1N1CC2(CCN(CC3CC4CCC3CC43CCC(=O)N3)CC2)C1)C(C)C` (single isomer, unassigned) [Example 14-1a] has a half-life at 1 μM of 57.3 min. Molecule `CC(C)N(C(=O)c1cc(F)ccc1Oc1nncnc1N1CC2(CCN(CC3CCC4(CC3)CN(C)C(=O)N4)CC2)C1)C(C)C` (single isomer, unassigned) [Example 47-1] has a half-life at 1 μM of 46.8 min.

Target: Menin/MLL-4-43 peptide interaction (Homo sapiens (Human), UniProt O00255)
Sequence (O00255 whole entry, species assumed): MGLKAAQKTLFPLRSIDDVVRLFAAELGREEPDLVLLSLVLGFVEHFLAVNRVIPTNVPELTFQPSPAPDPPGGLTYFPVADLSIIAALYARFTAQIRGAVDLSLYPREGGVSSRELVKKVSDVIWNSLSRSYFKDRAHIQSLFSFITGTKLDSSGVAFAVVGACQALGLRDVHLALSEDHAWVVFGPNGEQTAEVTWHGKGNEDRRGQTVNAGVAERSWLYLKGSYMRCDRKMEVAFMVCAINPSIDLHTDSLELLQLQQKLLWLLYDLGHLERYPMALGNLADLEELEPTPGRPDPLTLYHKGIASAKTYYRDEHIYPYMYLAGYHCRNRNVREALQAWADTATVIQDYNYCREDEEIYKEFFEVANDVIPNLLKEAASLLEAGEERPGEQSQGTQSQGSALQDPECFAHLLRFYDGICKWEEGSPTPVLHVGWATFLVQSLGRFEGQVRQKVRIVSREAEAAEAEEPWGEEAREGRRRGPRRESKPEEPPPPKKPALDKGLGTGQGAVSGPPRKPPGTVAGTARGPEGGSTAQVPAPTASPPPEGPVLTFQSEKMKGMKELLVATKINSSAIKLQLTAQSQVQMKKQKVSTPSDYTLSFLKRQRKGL
Assay: Menin-MLL interaction inhibitory activity assay (fluorescence polarization competition)
Format: binding
Conditions: FITC-MLL4-43-peptide, Menin recombinant protein
Procedure: Test Example 1: Menin-MLL Interaction Inhibitory Activity Assay
The inhibition of Menin/MLL-4-43 peptide interaction by small molecule inhibitors was quantitatively detected by fluorescence polarization competition assay. The experiment was performed in a 384-well plate (Corning, Cat #3575) using a reaction buffer consisting of 50 mM Tris, pH 7.5, 50 mM NaCl, and 1 mM DTT. A 40 μL reaction system included 10 μL of 8 nM Menin recombinant protein and 10 μL of the test compound at different concentrations. The compound was pre-incubated with Menin protein for 15 min, and then 20 μL of 10 nM FITC-MLL4-43-peptide was added. After incubation on a shaker at 25° C. for 60 min, the fluorescence polarization signal (FP 485 520 520) was read using BMG PHERAStar detection. The experimental data was analyzed and processed by GraphPad Prism 6 software to obtain the IC50 value. The control compound 1 was prepared by referring to the method of Example 64 in WO2017214367.
Work on `CCN(C(=O)c1cc(F)ccc1Oc1nncnc1N1CC2(CCN(CC3CC4CCC3CC43CCC(=O)N3)CC2)C1)C(C)C` (single isomer, unassigned) [Example 14-1a] yielded an IC50 of 49.2 nM. With `CC(C)N(C(=O)c1cc(F)ccc1Oc1nncnc1N1CC2(CCN(CC3CCC4(CC3)CN(C)C(=O)N4)CC2)C1)C(C)C` (single isomer, unassigned) [Example 47-1] the IC50 was 20.2 nM. For `CC(C)c1ncncc1-c1cc(F)ccc1Oc1cncnc1N1CC2(CN(CC3CCC4(CC3)OCCO4)C2)C1` [Control compound 1, reference compound], the IC50 was 156 nM.

System: MV4-11
Assay: Cell proliferation inhibition (CellTiter-Glo), MV4-11
Format: cell-based
Conditions: Homo sapiens, MV4-11, 72 h, MV4-11 cells
Procedure: Test Example 2: Test of the Inhibitory Ability of Menin-MLL Interaction Inhibitors on Cell Proliferation
The inhibitory ability of the compounds of the present disclosure on the proliferation of tumor cell lines (including cell lines containing MLL fusion protein such as MV4-11, MOLM-13, THP-1 and NOMO-1, control cell lines without MLL fusion protein such as HL-60, K562 and MOLM-16, and cell lines containing NPM1 mutation such as OCI-AML3) was evaluated by using the cell viability analysis method. The cells were plated in 96-well plates at a certain concentration (e.g., 5,000-20,000 cells/well), and then an equal volume of culture medium containing 2 times the final concentration of the test compound (the final concentration ranging 10 from 1 nM to 10 μM) was added. The plates were placed in an incubator and cultured at 37° C. and 5% CO2 for 72-168 h. Before the test, an equal volume of CellTiter-Glo® Luminescent reagent was added, and the plate was incubated at room temperature for 10 min before detection using an ELISA reader (BMG LABTECH). The data were analyzed using GraphPad Prism software to obtain the IC50 value and compound fitting curve. The control compound 1 was prepared by referring to the method of Example 64 in WO2017214367.
Work on `CCN(C(=O)c1cc(F)ccc1Oc1nncnc1N1CC2(CCN(CC3CC4CCC3CC43CCC(=O)N3)CC2)C1)C(C)C` (single isomer, unassigned) [Example 14-1a] yielded a GI50 of 86.1 nM. In the case of `CC(C)N(C(=O)c1cc(F)ccc1Oc1nncnc1N1CC2(CCN(CC3CCC4(CC3)CN(C)C(=O)N4)CC2)C1)C(C)C` (single isomer, unassigned) [Example 47-1], the GI50 is reported as 118 nM.

Same assay, conditions: MV4-11 cells, 72 h
For `CC(C)c1ncncc1-c1cc(F)ccc1Oc1cncnc1N1CC2(CN(CC3CCC4(CC3)OCCO4)C2)C1` [Control compound 1, reference compound], the GI50 was 82.7 nM.
